This passage reports IC50 results from patent US11299478B2, “2-cyanopyrimidin-4-yl carbamate or urea derivative or salt thereof, and pharmaceutical composition including same” (HANLIM PHARMACEUTICAL CO., LTD., priority 2018, dated 2022).

In this assay the target is T1, cathepsin K (Homo sapiens, UniProt P43235).
T1 sequence (P43235 115-329): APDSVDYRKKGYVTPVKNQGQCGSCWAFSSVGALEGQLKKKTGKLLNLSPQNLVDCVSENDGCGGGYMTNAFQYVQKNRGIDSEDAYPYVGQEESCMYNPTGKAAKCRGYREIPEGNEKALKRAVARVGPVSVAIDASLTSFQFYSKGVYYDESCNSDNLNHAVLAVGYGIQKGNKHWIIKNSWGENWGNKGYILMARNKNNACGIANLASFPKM
Briefly: Inhibitory activity assay against cathepsin K (enzyme assay). The assay is classed as biochemical. As to conditions: Z-Phe-Arg-AMC 10 μM, enzyme 1 nM, pH 5.5, 30 minutes. As for the experimental part:
In order to measure the enzyme activity of cathepsin K, a buffer solution (pH 5.5) consisting of 50 mM 2-(N-morpholino)ethanesulfonic acid (MES), 2 mM dithiothreitol (DTT), 2.5 mM ethylenediaminetetraacetic acid (EDTA), 0.01% Triton X-100, and 10% dimethyl sulfoxide (DMSO) was prepared. The substrate, the test material, and the enzyme were mixed in the buffer solution in a predetermined concentration. The Z-Phe-Arg-AMC substrate was used in the final concentration of 10 μM. The test material was used in the final concentrations of 10.0 μM, 3.33 μM, 1.11 μM, 0.370 μM, 0.123 μM, 0.0412 μM, 0.0137 μM, 0.00457 μM, 0.00152 μM, and 0.000508 μM, respectively. The cathepsin K enzyme was used in the final concentration of 1 nM. The final volume of the enzyme reaction solution was 10 μL. After reacting the mixture of substrate, test material, and enzyme for 30 minutes, the enzyme activity was measured with the Synergy Neo (Biotek) microplate reader at an absorption wavelength of 355 nm and an emission wavelength of 460 nm. IC50 values were determined using 4-parameter logistic curve fit program of GraphPad Prism.

SMILES strings stand for the structures. Bounds are passed on as bounds.

Turning to `COCCc1ccc(OCc2ccc(-c3ccc(NC(=O)NC4(c5ccnc(C#N)n5)CCCCC4)cc3)cc2)cc1` [Example 152, 1-(1-(2-cyanopyrimidin-4-yl)cyclohexyl)-3-(4′-((4-(2-methoxyethyl)phenoxy)methyl)-[1,1′-biphenyl]-4-yl)urea], the IC50 stood at 2400 nM.
Next, `N#Cc1nccc(C2(NC(=O)NCc3cccc(C(F)(F)F)c3)CCCC2)n1` [Example 57, 1-(1-(2-cyanopyrimidin-4-yl)cyclopentyl)-3-(3-(trifluoromethyl)benzyl)urea]: 517 nM.
Next, `Cc1cccc(CNC(=O)NC2(c3ccnc(C#N)n3)CCCC2)c1` [Example 47, 1-(1-(2-cyanopyrimidin-4-yl)cyclopentyl)-3-(3-methylbenzyl)urea]: 105 nM; `N#Cc1nccc(C2(NC(=O)NCc3ccoc3)CCCC2)n1` [Example 53, 1-(1-(2-cyanopyrimidin-4-yl)cyclopentyl)-3-(furan-3-ylmethyl)urea]: 320 nM; `Cc1ccc(NC(=O)NC2(c3ccnc(C#N)n3)CCCC2)cc1` [Example 39, 1-(1-(2-cyanopyrimidin-4-yl)cyclopentyl)-3-(para-tolyl)urea]: 108 nM.
Next, `N#Cc1nccc(C2(NC(=O)OCc3cccc(Cl)c3)CCCC2)n1` [Example 8, 3-chlorobenzyl (1-(2-cyanopyrimidin-4-yl)cyclopentyl)carbamate]: 285 nM; `COc1ccccc1NC(=O)NC1(c2ccnc(C#N)n2)CCCC1` [Example 79, 1-(1-(2-cyanopyrimidin-4-yl)cyclopentyl)-3-(2-methoxyphenyl)urea]: 3080 nM.
For the compound `N#Cc1nccc(C2(NC(=O)Nc3cccc(-c4ccc(C(F)(F)F)cc4)c3)CCCCC2)n1` [Example 112, 1-(1-(2-cyanopyrimidin-4-yl)cyclohexyl)-3-(4′-(trifluoromethyl)-[1,1′-biphenyl]-3-yl)urea], the IC50 amounted to 147 nM.
Next, `N#Cc1nccc(C2(NC(=O)Nc3ccc(S(N)(=O)=O)cc3)CCCC2)n1` [Example 72, 4-(3-(1-(2-cyanopyrimidin-4-yl)cyclopentyl)ureido)benzenesulfonamide]: 331 nM; `COc1ccccc1CNC(=O)NC1(c2ccnc(C#N)n2)CCCC1` [Example 68, 1-(1-(2-cyanopyrimidin-4-yl)cyclopentyl)-3-(2-methoxybenzyl)urea]: 219 nM.
Next, `N#Cc1nccc(C2(NC(=O)NCc3ccc(C(F)(F)F)cc3)CCCC2)n1` [Example 58, 1-(1-(2-cyanopyrimidin-4-yl)cyclopentyl)-3-(4-(trifluoromethyl)benzyl)urea]: 116 nM.
Next, `N#Cc1cccc(COC(=O)NC2(c3ccnc(C#N)n3)CCCC2)c1` [Example 9, 3-cyanobenzyl (1-(2-cyanopyrimidin-4-yl)cyclopentyl)carbamate]: 490 nM.
Consider `Cc1cccc(COC(=O)NC2(c3ccnc(C#N)n3)CCCC2)c1` [Example 5, 3-methylbenzyl (1-(2-cyanopyrimidin-4-yl)cyclopentyl)carbamate], for which the IC50 came out at 161 nM.
`N#Cc1nccc(C2(NC(=O)Nc3ccccc3O)CCCC2)n1` [Example 73, 1-(1-(2-cyanopyrimidin-4-yl)cyclopentyl)-3-(2-hydroxyphenyl)urea]: the IC50 was found to be 315 nM.
Next, `N#Cc1nccc(C2(NC(=O)Nc3ccccc3C(F)(F)F)CCCC2)n1` [Example 59, 1-(1-(2-cyanopyrimidin-4-yl)cyclopentyl)-3-(2-(trifluoromethyl)phenyl)urea]: 174 nM; `COc1cccc(NC(=O)NC2(c3ccnc(C#N)n3)CCCC2)c1` [Example 80, 1-(1-(2-cyanopyrimidin-4-yl)cyclopentyl)-3-(3-methoxyphenyl)urea]: 157 nM.
As for `N#Cc1nccc(C2(NC(=O)Nc3ccc(C(F)(F)F)cc3)CCCC2)n1` [Example 61, 1-(1-(2-cyanopyrimidin-4-yl)cyclopentyl)-3-(4-(trifluoromethyl)phenyl)urea], the IC50 is 292 nM.
Next, `N#Cc1nccc(C2(NC(=O)Nc3ccc(N4CCNCC4)cc3)CCCC2)n1` [Example 52, 1-(1-(2-cyanopyrimidin-4-yl)cyclopentyl)-3-(4-(piperazin-1-yl)phenyl)urea]: 608 nM; `Cc1ccccc1NC(=O)NC1(c2ccnc(C#N)n2)CCCC1` [Example 37, 1-(1-(2-cyanopyrimidin-4-yl)cyclopentyl)-3-(ortho-tolyl)urea]: 113 nM.
Next, `COc1cccc(COC(=O)NC2(c3ccnc(C#N)n3)CCCC2)c1` [Example 6, 3-methoxybenzyl (1-(2-cyanopyrimidin-4-yl)cyclopentyl)carbamate]: 179 nM; `COc1ccc(CNC(=O)NC2(c3ccnc(C#N)n3)CCCC2)cc1OC` [Example 49, 1-(1-(2-cyanopyrimidin-4-yl)cyclopentyl)-3-(3,4-dimethoxybenzyl)urea]: 590 nM; `COc1ccc(CNC(=O)NC2(c3ccnc(C#N)n3)CCCC2)cc1` [Example 70, 1-(1-(2-cyanopyrimidin-4-yl)cyclopentyl)-3-(4-methoxybenzyl)urea]: 270 nM.
Next, `N#Cc1nccc(C2(NC(=O)OCc3cccc(-c4ccc(N5CCOCC5)cc4)c3)CCCC2)n1` [Example 32, (4′-morpholino-[1,1′-biphenyl]-3-yl)methyl (1-(2-cyanopyrimidin-4-yl)cyclopentyl)carbamate]: no less than 10000 nM.
With `N#Cc1nccc(C2(NC(=O)Nc3ccc(C(=O)O)cc3)CCCCC2)n1` [Example 135, 4-(3-(1-(2-cyanopyrimidin-4-yl)cyclohexyl)ureido)benzoic acid], the IC50 was 111 nM.
On to `COC(=O)CCC#Cc1ccc(-c2ccc(NC(=O)NC3(c4ccnc(C#N)n4)CCCCC3)cc2)cc1` [Example 175, methyl 5-(4′-(3-(1-(2-cyanopyrimidin-4-yl)cyclohexyl)ureido)-[1,1′-biphenyl]-4-yl)pent-4-ynoate], for which the IC50 was found to be 136 nM.
Next, `COc1ccc(NC(=O)NC2(c3ccnc(C#N)n3)CCCC2)cc1` [Example 81, 1-(1-(2-cyanopyrimidin-4-yl)cyclopentyl)-3-(4-methoxyphenyl)urea]: 162 nM; `N#Cc1nccc(C2(NC(=O)Nc3cccc(O)c3)CCCC2)n1` [Example 71, 1-(1-(2-cyanopyrimidin-4-yl)cyclopentyl)-3-(3-hydroxyphenyl)urea]: 547 nM.
Next, `Cn1ncc2ccc(-c3ccc(COC(=O)NC4(c5ccnc(C#N)n5)CCCC4)cc3)cc21` [Example 34, 4-(1-methyl-1H-indazol-6-yl)benzyl (1-(2-cyanopyrimidin-4-yl)cyclopentyl)carbamate]: 2040 nM.
Next, `Cn1ncc2cc(NC(=O)NC3(c4ccnc(C#N)n4)CCCC3)ccc21` [Example 76, 1-(1-(2-cyanopyrimidin-4-yl)cyclopentyl)-3-(1-methyl-1H-indazol-5-yl)urea]: 573 nM; `CC(C)C1CCN(c2ccc(NC(=O)NC3(c4ccnc(C#N)n4)CCCCC3)cc2)CC1` [Example 145, 1-(1-(2-cyanopyrimidin-4-yl)cyclohexyl)-3-(4-(4-isopropylpiperidin-1-yl)phenyl)urea]: 76 nM; `N#Cc1nccc(C2(NC(=O)NCCc3ccc(S(N)(=O)=O)cc3)CCCC2)n1` [Example 45, 4-(2-(3-(1-(2-cyanopyrimidin-4-yl)cyclopentyl)ureido)ethyl)benzenesulfonamide]: 3430 nM.
With `COc1cccc(CNC(=O)NC2(c3ccnc(C#N)n3)CCCC2)c1` [Example 69, 1-(1-(2-cyanopyrimidin-4-yl)cyclopentyl)-3-(3-methoxybenzyl)urea], the IC50 worked out at 552 nM.
Next, `N#Cc1nccc(C2(NC(=O)OCc3ccccc3)CCCC2)n1` [Example 1, Benzyl (1-(2-cyanopyrimidin-4-yl)cyclopentyl)carbamate]: 23 nM.
